Values quoted from earlier work as cited in patent US7625901B2, “Substituted monocyclic CGRP receptor antagonists” (Merck & Co., Inc., priority 2006, dated 2009).
No end group written: not given here.

Assays:
[1] = system: headache induced by CGRP infusion; settings: control group
[2] = system: acute attacks of migraine; settings: clinical trials
facial blood flow [3] = settings: marmoset, electrical stimulation of the trigeminal ganglion
facial blood flow [4] = settings: rat, trigeminal ganglion stimulation
[5] = system: diameter of the middle meningeal artery; settings: rats, electrical stimulation of the dura mater, prior administration

Compound	prevention of headache induced by CGRP infusion [1]	treating acute attacks of migraine [2]	block of increase in facial blood flow (facial blood flow [3])	inhibition of increased facial blood flow (facial blood flow [4])	block of increased diameter of the middle meningeal artery [5]
NCCCC[C@H](NC(=O)[C@@H](Cc1cc(Br)c(O)c(Br)c1)NC(=O)N1CCC(N2Cc3ccccc3NC2=O)CC1)C(=O)N1CCN(c2ccncc2)CC1 [BIBN4096BS]	able to prevent headache	effective	could be blocked		
CGRP(8-37): a peptide CGRP antagonist; fragment of CGRP that lacks seven N-terminal amino acid residues (VTHRLAGLLSRSGGVVKNNFVPTNVGSKAF; ends and bridges not checked; UniProt P06881 90-119, looked up, fragment)				inhibited	blocked
